Test: Dissociation constant was reported
Format: physicochemical

`CN(C)CCN1c2ccccc2Sc2ccc(Cl)cc21` [CHOLRPHENETHAZINE] showed a pKa of 9.1.

Reference: ChEMBL document CHEMBL1121747, “Side-chain effects on phenothiazine cation radical reactions” (J Med Chem, 1981)
